The text below walks through data of ChEMBL document CHEMBL1126189, “Synthesis and X-ray crystallographic analysis of quinazolinone cholecystokinin/gastrin receptor ligands” (J Med Chem, 1992).

The target in the first test is T1, Gastrin/cholecystokinin type B receptor (Mus musculus, UniProt P56481).
T1 sequence (P56481 whole entry): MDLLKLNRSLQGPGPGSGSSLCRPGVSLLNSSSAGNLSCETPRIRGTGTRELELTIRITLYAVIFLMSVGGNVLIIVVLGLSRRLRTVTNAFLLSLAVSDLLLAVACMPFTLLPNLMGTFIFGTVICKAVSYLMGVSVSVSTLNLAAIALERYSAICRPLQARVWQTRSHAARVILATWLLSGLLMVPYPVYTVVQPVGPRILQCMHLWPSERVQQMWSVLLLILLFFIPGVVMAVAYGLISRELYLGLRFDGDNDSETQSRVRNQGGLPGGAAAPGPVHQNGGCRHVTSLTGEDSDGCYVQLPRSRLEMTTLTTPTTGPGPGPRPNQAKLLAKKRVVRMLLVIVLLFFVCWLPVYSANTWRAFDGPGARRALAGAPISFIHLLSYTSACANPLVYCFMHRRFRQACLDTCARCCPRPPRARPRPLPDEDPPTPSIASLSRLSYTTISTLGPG
Kind of test: Evaluated for inhibition of [125I]CCK-8S binding to cholecystokinin CCK-B receptor from mouse brain membranes […] (in vitro).
Settings: not given
`CC(C)Oc1cccc(-n2c(/C=C/c3c[nH]c4ccccc34)nc3ccccc3c2=O)c1`: the half-maximal inhibitory concentration (IC50) worked out at 430 nM.

With `CC(C)Oc1cccc(-n2c(/C=C/c3c[nH]c4ccc(Br)cc34)nc3ccccc3c2=O)c1`, the concentration for half-maximal inhibition (IC50) came out at 1400 nM.

As for `CC(C)Oc1cccc(-n2c(C(C)Cc3c[nH]c4ccccc34)nc3ccccc3c2=O)c1` (centres undefined), the IC50 amounted to 9100 nM.

In the case of `CC(C)Oc1cccc(-n2c(CC(C)c3c[nH]c4ccccc34)nc3ccccc3c2=O)c1` (centres undefined), the IC50 turned out to be 70 nM.

A further test has as its target T2, Gastrin/cholecystokinin type B receptor (Mus musculus) (UniProt P56481).
T2 sequence (whole entry): T1 sequence (P56481 whole entry)
In words: Evaluated for inhibition of [125I]-CCK-8S binding to cholecystokinin CCK-B receptor from mouse brain membranes […] (in vitro). The conditions noted are these: 10 uM.
The molecule `O=c1c2ccccc2nc(Cc2ccccc2)n1-c1ccccc1` gave an inhibition of 6%.

As for `O=c1c2ccccc2nc(CCc2ccccc2)n1-c1ccccc1`, the inhibition was found to be 27%.

With `O=c1c2ccccc2nc(CCCc2ccccc2)n1-c1ccccc1`, the inhibition was 21%.

As for `O=c1c2ccccc2nc(CCCc2c[nH]c3ccccc23)n1-c1ccccc1`, the inhibition was 20%.

In turn, `O=c1c2ccccc2nc(Cc2c[nH]c3ccccc23)n1-c1ccccc1` came in with an inhibition of 36%.

A word on the IC50: it is the concentration at which inhibition is half-maximal. The term inhibition denotes the share of the control response that was lost under treatment. The low end stands for little suppression, the high end for strong suppression.
